From patent publication US9115092B2, “Substituted quinazoline and pyrido-pyrimidine derivatives” (Asana Biosciences, LLC, priority 2010, dated 2015)

What was measured:
[1] = test system: pS6RP(S235/236), PC3 cells; experiment: In-cell Western assay, pS6RP(S235/236) in PC3 cells; type: cell-based, human; conditions: In-cell Western
Procedure: Cells from human prostate cancer cell line PC3 (American Type Culture Collection (ATCC), Manassas, Va. 20108 USA) were seeded at an optimal density of 22,000 cell/well in 96-well plates containing Ham's F12K medium (90 μL) and incubated overnight. The compound dilutions were carried out in 100% DMSO followed by a dilution in the medium. Test compounds were added in serial dilutions to the wells and incubated for 2 h. The cells were washed and fixed with 4% paraformaldehyde. After incubation at room temperature for 1 h in the dark, blocking was done for 2 h at room temperature. Primary antibodies for phosphorylated (p) AKT(5473) (phosphorylated at serine 473), pAKT(T308) (phosphorylated at threonine 308) and for pS6RP(S235/236) (phosphorylated at serine 235/236) (commercially available from Cell Signaling Technology®, whose protocol was followed for the in-cell western assay, were diluted to the required concentration and added to the corresponding wells followed by overnight incubation at 4° C. Eu-labeled rabbit (PE) (Perkin-Elmer USA catalog #AD0106) secondary antibody was added and incubated for 2 h at room temperature. Delfia® enhancement solution (cat #1244-105, Perkin Elmer USA) was subsequently added to the plate before taking the reading at 615 nm with excitation wavelength of 340 nm, after which 0.5 μg/mL of Hoechst® 33258 dye (Catalog #86140-5, Sigma) was added to the plate and fluorescence emission was read at 460 nm with 355 nm excitation, to evaluate the correction factor. IC50 values were calculated using a sigmoidal dose-response curve fit in GraphPad Prism® v5 software.

mTOR kinase = molecular target: T1, mTOR kinase (Homo sapiens, UniProt P42345); experiment: mTOR kinase TR-FRET assay; type: biochemical; conditions: read-out: mTO R
T1 construct: purchased Millipore, USA
Summary of the method: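 TR-FRET read-out (340 nm excitation, 615/665 nm emission) of Thr389 phosphorylation of a ULight-labeled p70 S6K peptide (50 nM) by mTOR, 20 μM ATP, 60 min room temperature after 60 min compound preincubation. Buffer HEPES pH 7.5 with MnCl2, EGTA; IC50 by sigmoidal dose-response.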

[2] = molecular target: T2, PI3Kα (wild-type), P110/P85α (Homo sapiens, UniProt P42336); experiment: PI3 Kinase TR-FRET assay, PI3Kα (wild-type); type: biochemical
T2 construct: made in house; host or cells: SF9 insect cells
Summary of the method: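 TR-FRET read-out of PIP3 formation via biotin-PIP3 displacement (665/615 nm ratio) gave IC50 curves. Enzyme: 5 ng wild-type P110/P85α from Sf9 cells, 60 min RT with compound and PIP2 (MgCl2 40 mM, DTT 5 mM), then 30 min RT kinase reaction at 10 μM ATP and 10 μM PIP2.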

PC3 cells = experiment: XTT assay for cell viability, PC3 cells; type: cell-based, human; conditions: Homo sapiens, PC-3, cell viability
Procedure: Using a commercial kit from Sigma Aldrich (Catalog #X34251) and following its protocol, PC3 cells in the log phase of growth were employed and seeded at an optimal density of 1000 cell/well on to 96 well plates and incubated for 24 h followed by the addition of compounds of formula (I) in serial dilutions. Compound dilutions were made in DMSO. The cells were incubated with the compounds of formula (I) for 96 h and XTT tetrazolium dye (Sigma, USA) was subsequently added and incubated at 37° C. After the color formation, absorbance was measured at 465 nm in a Spectramax® Gemini spectrophotometer. EC50 values were calculated using a sigmoidal dose response curve fit in GraphPad Prism® v5 software. The tested compounds of formula (I) which caused inhibition of PC3 cell proliferation as determined by this assay protocol are shown in Table 2.

T2 sequence (P42336 whole entry): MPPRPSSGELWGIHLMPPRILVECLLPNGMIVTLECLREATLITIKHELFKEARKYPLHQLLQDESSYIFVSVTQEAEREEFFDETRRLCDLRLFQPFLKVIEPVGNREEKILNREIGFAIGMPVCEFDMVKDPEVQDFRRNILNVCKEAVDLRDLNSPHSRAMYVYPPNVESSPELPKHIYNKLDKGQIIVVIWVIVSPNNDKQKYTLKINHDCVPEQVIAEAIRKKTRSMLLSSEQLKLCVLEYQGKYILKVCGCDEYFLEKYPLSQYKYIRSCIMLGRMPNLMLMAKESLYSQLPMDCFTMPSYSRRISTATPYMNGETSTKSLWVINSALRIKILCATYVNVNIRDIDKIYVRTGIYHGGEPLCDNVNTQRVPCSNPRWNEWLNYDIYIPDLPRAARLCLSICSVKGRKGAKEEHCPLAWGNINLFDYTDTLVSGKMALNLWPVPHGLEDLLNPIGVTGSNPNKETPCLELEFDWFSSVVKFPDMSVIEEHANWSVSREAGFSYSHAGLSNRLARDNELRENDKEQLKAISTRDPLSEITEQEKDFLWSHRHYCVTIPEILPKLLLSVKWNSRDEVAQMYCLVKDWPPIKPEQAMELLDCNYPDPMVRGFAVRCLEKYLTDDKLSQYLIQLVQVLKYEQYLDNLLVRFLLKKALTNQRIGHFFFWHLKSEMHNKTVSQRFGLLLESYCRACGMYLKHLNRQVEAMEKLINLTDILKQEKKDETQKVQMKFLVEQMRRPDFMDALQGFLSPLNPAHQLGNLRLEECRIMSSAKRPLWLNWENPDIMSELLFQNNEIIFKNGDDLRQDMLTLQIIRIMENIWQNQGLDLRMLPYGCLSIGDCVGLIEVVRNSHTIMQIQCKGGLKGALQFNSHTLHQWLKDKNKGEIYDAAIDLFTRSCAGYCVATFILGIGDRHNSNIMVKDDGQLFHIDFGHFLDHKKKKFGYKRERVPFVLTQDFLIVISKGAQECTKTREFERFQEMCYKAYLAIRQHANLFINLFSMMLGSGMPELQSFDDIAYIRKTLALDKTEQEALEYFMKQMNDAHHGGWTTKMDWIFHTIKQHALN
T2 sequence (P27986 whole entry partner): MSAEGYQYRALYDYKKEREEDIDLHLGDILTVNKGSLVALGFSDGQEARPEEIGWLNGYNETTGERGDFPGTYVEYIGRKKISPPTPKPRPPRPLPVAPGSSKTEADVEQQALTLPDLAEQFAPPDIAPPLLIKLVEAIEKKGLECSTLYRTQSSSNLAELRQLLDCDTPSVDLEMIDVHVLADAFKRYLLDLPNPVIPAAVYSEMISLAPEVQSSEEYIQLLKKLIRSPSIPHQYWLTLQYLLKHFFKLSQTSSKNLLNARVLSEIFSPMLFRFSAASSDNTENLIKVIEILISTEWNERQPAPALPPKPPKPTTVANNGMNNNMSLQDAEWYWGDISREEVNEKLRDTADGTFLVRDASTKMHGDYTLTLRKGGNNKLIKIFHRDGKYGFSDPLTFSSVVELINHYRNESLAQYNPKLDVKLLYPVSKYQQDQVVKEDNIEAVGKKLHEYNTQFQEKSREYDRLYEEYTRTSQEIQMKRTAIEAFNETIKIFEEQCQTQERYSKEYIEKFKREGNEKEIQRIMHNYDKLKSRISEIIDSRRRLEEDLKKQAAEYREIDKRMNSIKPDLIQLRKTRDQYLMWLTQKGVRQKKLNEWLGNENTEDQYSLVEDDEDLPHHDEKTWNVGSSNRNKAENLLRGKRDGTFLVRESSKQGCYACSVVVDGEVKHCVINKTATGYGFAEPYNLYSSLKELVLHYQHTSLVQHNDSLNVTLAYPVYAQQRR

SMILES	IC50 [1]	IC50 (mTOR kinase)	IC50 [2]	IC50 (PC3 cells)
CN(C)C1CCN(C(=O)c2ccc(NC(=O)Nc3ccc(-c4nc(N5CCOCC5)c5ncc(-c6cnn(C)c6)cc5n4)cc3)cc2)C1 (stereo in doubt) [Example 185, (S)-1-(4-(3-(dimethylamino)pyrrolidine-1-carbonyl)phenyl)-3-(4-(7-(1-methyl-1H-pyrazol-4-yl)-4-morpholino-pyrido[3,2-d]pyrimidin-2-yl)phenyl)urea]	201 to 10000 nM	< 50 nM	< 50 nM	
CN(C)C1CCN(C(=O)c2ccc(NC(=O)Nc3ccc(-c4nc(N5CCOCC5)c5ccc(-c6cncnc6)cc5n4)cc3)cc2)C1 (stereo in doubt) [Example 188, (S)-1-(4-(3-(dimethylamino)pyrrolidine-1-carbonyl)phenyl)-3-(4-(4-morpholino-7-(pyrimidin-5-yl)quinazolin-2-yl)phenyl)urea]	201 to 10000 nM	< 50 nM	< 50 nM	
CN(C)C1CCN(C(=O)c2ccc(NC(=O)Nc3ccc(-c4nc(N5CCOCC5)c5ncc(-c6cnn(C)c6)cc5n4)cc3F)cc2)C1 (stereo in doubt) [Example 210, (S)-1-(4-(3-(dimethylamino)pyrrolidine-1-carbonyl)phenyl)-3-(2-fluoro-4-(7-(1-methyl-1H-pyrazol-4-yl)-4-morpholino-pyrido[3,2-d]pyrimidin-2-yl)phenyl)urea]	201 to 10000 nM	< 50 nM	< 50 nM	
CC1CN(c2nc(-c3ccc(NC(=O)Nc4ccc(C(=O)N(C)C)cc4)cc3)nc3cc(-c4cncnc4)ccc23)CCO1 (stereo not drawn) [Example 138, N,N-dimethyl-4-(3-(4-(4-(2-methylmorpholino)-7-(pyrimidin-5-yl)quinazolin-2-yl)phenyl)ureido)-benzamide]		< 50 nM	< 50 nM	201 to 10000 nM
Cc1noc(C)c1-c1cc2nc(-c3ccc(NC(=O)Nc4ccc(C(=O)N(C)C)cc4)cc3)nc(N3CCOCC3)c2cc1F [Example 143, 4-(3-(4-(7-(3,5-dimethylisoxazol-4-yl)-6-fluoro-4-morpholino-quinazolin-2-yl)phenyl)ureido)-N,N-dimethyl-benzamide]		< 50 nM	50 to 200 nM	201 to 10000 nM
CN(C)C(=O)c1ccc(NC(=O)Nc2ccc(-c3nc(N4CCOCC4)c4ccc(-c5cnc(N(C)C)nc5)cc4n3)cc2)cc1 [Example 226, 4-(3-(4-(7-(2-(dimethylamino)pyrimidin-5-yl)-4-morpholino-quinazolin-2-yl)phenyl)ureido)-N,N-dimethyl-benzamide]		< 50 nM	< 50 nM	201 to 10000 nM
CNC(=O)c1ccc(NC(=O)Nc2ccc(-c3nc(N4CCOCC4)c4ccc(-c5ccco5)cc4n3)cc2)cc1 [Example 233, 4-(3-(4-(7-(furan-2-yl)-4-morpholine-quinazolin-2-yl)phenyl)ureido)-N-methyl-benzamide]		50 to 200 nM	< 50 nM	< 100 nM
CN(C)C(=O)c1ccc(NC(=O)Nc2ccc(-c3nc(N4CCOCC4)c4ccc(-c5cncnc5)cc4n3)cc2)cc1F [Example 240, 2-fluoro-N,N-dimethyl-4-(3-(4-(4-morpholino-7-(pyrimidin-5-yl)quinazolin-2-yl)phenyl)ureido)-benzamide]		< 50 nM	< 50 nM	201 to 10000 nM
CN(C)C(=O)c1ccc(NC(=O)Nc2ccc(-c3nc(N4CCOCC4)c4ccc(-c5cccc(S(C)(=O)=O)c5)cc4n3)c(F)c2)cc1 [Example 245, 4-(3-(3-fluoro-4-(7-(3-(methylsulfonyl)phenyl)-4-morpholino-quinazolin-2-yl)phenyl)ureido)-N,N-dimethyl-benzamide]		50 to 200 nM	< 50 nM	201 to 10000 nM
CN(C)C(=O)c1ccc(NC(=O)Nc2ccc(-c3nc(N4CCOCC4)c4ncc(-c5cncnc5)cc4n3)c(F)c2)cc1 [Example 250, 4-(3-(3-fluoro-4-(4-morpholino-7-(pyrimidin-5-yl)pyrido[3,2-d]pyrimidin-2-yl)phenyl)ureido)-N,N-dimethyl-benzamide]		< 50 nM	< 50 nM	201 to 10000 nM
CN(C)C(=O)c1ccc(NC(=O)Nc2ccc(-c3nc(N4CCOCC4)c4ccc(-c5cccnc5F)cc4n3)cc2)cc1F [Example 255, 2-fluoro-4-(3-(4-(7-(2-fluoropyridin-3-yl)-4-morpholino-quinazolin-2-yl)phenyl)ureido)-N,N-dimethyl-benzamide]		< 50 nM	50 to 200 nM	201 to 10000 nM
CN(C)C(=O)c1ccc(NC(=O)Nc2ccc(-c3nc(N4CCOCC4)c4cc(F)c(-c5cncnc5)cc4n3)c(F)c2)cc1 [Example 256, 4-(3-(3-fluoro-4-(6-fluoro-4-morpholino-7-(pyrimidin-5-yl)quinazolin-2-yl)phenyl)ureido)-N,N-dimethyl-benzamide]		50 to 200 nM	50 to 200 nM	201 to 10000 nM
COc1ncc(-c2ccc3c(N4CCOCC4)nc(-c4ccc(NC(=O)Nc5ccc(C(=O)N(C)C)c(F)c5)cc4)nc3c2)cn1 [Example 257, 2-fluoro-4-(3-(4-(7-(2-methoxypyrimidin-5-yl)-4-morpholino-quinazolin-2-yl)phenyl)ureido)-N,N-dimethyl-benzamide]		< 50 nM	< 50 nM	201 to 10000 nM
COc1ccc(-c2ccc3c(N4CCOCC4)nc(-c4ccc(NC(=O)Nc5ccc(C(=O)N(C)C)c(F)c5)cc4)nc3c2)cn1 [Example 259, 2-fluoro-4-(3-(4-(7-(6-methoxypyridin-3-yl)-4-morpholino-quinazolin-2-yl)phenyl)ureido)-N,N-dimethyl-benzamide]		< 50 nM	50 to 200 nM	201 to 10000 nM
CN(C)C(=O)c1ccc(NC(=O)Nc2ccc(-c3nc(N4CCOCC4)c4ccc(-c5cccnc5)cc4n3)cc2)cc1F [Example 260, 2-fluoro-N,N-dimethyl-4-(3-(4-(4-morpholino-7-(pyridin-3-yl)quinazolin-2-yl)phenyl)ureido)-benzamide]		< 50 nM	< 50 nM	201 to 10000 nM
CN(C)C(=O)c1ccc(NC(=O)Nc2ccc(-c3nc(N4CCOCC4)c4ccc(-c5ccco5)cc4n3)cc2)cc1F [Example 265, 2-fluoro-4-(3-(4-(7-(furan-2-yl)-4-morpholino-quinazolin-2-yl)phenyl)ureido)-N,N-dimethyl-benzamide]		50 to 200 nM	50 to 200 nM	< 100 nM
CN(C)C(=O)c1ccc(NC(=O)Nc2ccc(-c3nc(N4CCOCC4)c4ccc(-c5ccc(CO)o5)cc4n3)c(F)c2)cc1 [Example 274, 4-(3-(3-fluoro-4-(7-(5-(hydroxymethyl)furan-2-yl)-4-morpholino-quinazolin-2-yl)phenyl)ureido)-N,N-dimethyl-benzamide]		50 to 200 nM	< 50 nM	201 to 10000 nM
CC(O)c1ccc(-c2ccc3c(N4CCOCC4)nc(-c4ccc(NC(=O)Nc5ccc(C(=O)N(C)C)cc5)cc4F)nc3c2)o1 (stereo not drawn) [Example 275, 4-(3-(3-fluoro-4-(7-(5-(1-hydroxyethyl)furan-2-yl)-4-morpholino-quinazolin-2-yl)phenyl)ureido)-N,N-dimethyl-benzamide]		< 50 nM	50 to 200 nM	201 to 10000 nM
CN(C)C(=O)c1ccc(NC(=O)Nc2ccc(-c3nc(N4CCOCC4)c4ccc(-c5cncnc5)cc4n3)c(F)c2F)cc1 [Example 280, 4-(3-(2,3-difluoro-4-(4-morpholino-7-(pyrimidin-5-yl)quinazolin-2-yl)phenyl)ureido)-N,N-dimethyl-benzamide]		< 50 nM	50 to 200 nM	< 100 nM
CN(C)C(=O)c1ccc(NC(=O)Nc2ccc(-c3nc(N4CCOCC4)c4ccc(-c5ccco5)cc4n3)c(F)c2F)cc1 [Example 282, -(3-(2,3-difluoro-4-(7-(furan-2-yl)-4-morpholino-quinazolin-2-yl)phenyl)ureido)-N,N-dimethyl-benzamide]		201 to 10000 nM	50 to 200 nM	< 100 nM
